Results published in patent US20160374944A1, “COMPOSITIONS AND METHODS FOR TREATING AND PREVENTING CANCER BY TARGETING AND INHIBITING CANCER STEM CELLS” (priority 2011, published 2016).

Columns and labels:
[1] = system: Brain CSCs; test: cell viability, trypan blue, Vi-CELL analyzer; type: cell-based; details: 48 h
Experimental: Brain CSCs were treated with resveratrol (0-20 μM), curcumin (0-20 μM), honokiol (0-20 μM) and diallyl trisulphide (0-10 μM) for 3 days, and cell viability was measured by staining with trypan blue using Vi-CELL analyzer (Beckman Counter).
Brain CSCs were treated with sulforaphane (0-20 μM), rottlerin (0-1 μM), EGCG (0-40 μM) and embelin (0-5 μM) for 48 h, and cell viability was measured by staining with trypan blue using Vi-CELL analyzer (Beckman Counter).
Brain CSCs were treated with resveratrol (0-20 μM), curcumin (0-20 μM) honokiol (0-20 μM), and diallyl trisulphide (0-10 μM) for 3 days and cell viability was measured by staining with trypan blue using Vi-CELL analyzer. The results of those studies are illustrated in FIG. 23.
Brain CSCs were treated with sulforaphane (0-20 μM), rottlerin (0-1 μM), EGCG (0-40 μM), and embelin (0-5 μM) for 48 hours and cell viability was measured by staining with trypan blue using Vi-CELL analyzer. The results of those studies are illustrated in FIG. 24.

[2] = system: Pancreatic CSCs; test: Transwell migration assay; type: cell-based, human; details: for migration: EGCG 0-60 μM with or without quercetin 20 μM, 48 hrs
Experimental: (A) Pancreatic CSCs were treated with EGCG (0-60 μM) for 48 h. At the end of incubation period, the expression of Snail, ZEB1 and Slug was measured by q-RT-PCR. […] (B) Transwell migration assay. Pancreatic CSCs were plated in the top chamber of the transwell and treated with EGCG (0-60 μM) for 24 h. Cells migrated to the lower chambered were fixed with methanol, stained with crystal violet and counted. […] (C) Matrigel invasion assay. CSCs were plated onto the Matrigel-coated membrane in the top chamber of the transwell and treated with EGCG (0-60 μM) for 48 h. Cells invaded to the lower chambered were fixed with methanol, stained with crystal violet and counted. […] (D) Effects of EGCG on TCF-1/LEF activity. Pancreatic CSCs were transduced with TCF/LEF responsive GFP/firefly luciferase viral particles (pGreen Fire1-Gli with EF1, System Biosciences). Transduced CSCs were treated with EGCG (0-60) for 48 h and the GFP fluorescence was measured. […] FIG. 42A and FIG. 42B show graphs showing quercetin synergizes with EGCG to inhibit self-renewal capacity, invasion, migration, and TCF/LEF and Gli transcriptional activities in pancreatic CSCs. (A) Effects of EGCG and quercetin on spheroid and colony formation. Upper Panel, uercetin synergizes with EGCG to inhibit spheroid's cell viability. CSCs were seeded in suspension and treated with EGCG (0-60 μM) with or without quercetin (20 μM) for 7 days. At the end of incubation period, all the spheroids were collected and resuspended. Cell viability was measured by trypan blue assay. […] Lower panel, uercetin synergizes with EGCG to inhibit colony formation. […] At the end of incubation period, colonies were counted. […] Cells invaded to the lower chambered were fixed with methanol, stained with crystal violet and counted. […] Cells migrated to the lower chambered were fixed with methanol, stained with crystal violet and counted. […] Apoptosis was measured by TUNEL assay. […] Transduced CSCs were treated with EGCG (40 μM) with or without quercetin (20 μM) for 48 hrs and the luciferase activity was measured.

[3] = system: Pancreatic CSCs; test: caspase-3/7 activity; type: cell-based, human
Experimental: (A and B) Induction of apoptosis and activation of caspase-3/-7. Pancreatic CSCs were treated with rottlerin (0-2 μM) for 48 h, and apoptosis and caspase-3/-7 activity were measured by […] and colorometric assay, respectively. […] (C) Pancreatic CSCs were treated with rottlerin (0-1 μM) for 48 h, and the expression of Bcl-2, XIAP and Survivin was measured by qRT-PCR and normalized to GAPDH.
(A) Regulation of caspase-3/7 activity by EGCG. CSCs were treated with EGCG (0-60 μM) for 24 h, and caspase-3/7 activity was measured as per manufacturer's instructions. […] (B) Regulation of apoptosis by EGCG. CSCs were treated with EGCG (0-60 μM) for 48 h, and apoptosis was measured by TUNEL assay. […] (C) Regulation of apoptosis-related proteins. Pancreatic CSCs were treated with EGCG (0-60 μM) for 36 h. Real time PCR (q-RT-PCR) was performed to examine the expression of Bcl-2, survivin, XIAP, and GAPDH.

## C[S+]([O-])CCCCN=C=S (centres unmarked) [sulforaphane]
[1]
  cell viability: inhibit cell viability

## O=c1c(O)c(-c2ccc(O)c(O)c2)oc2cc(O)cc(O)c12 [quercetin]
[2]
  migration: effective alone

## O=C(O[C@@H]1Cc2c(O)cc(O)cc2O[C@@H]1c1cc(O)c(O)c(O)c1)c1cc(O)c(O)c(O)c1 [EGCG, epigallocatechin gallate]
[1]
  cell viability: inhibit cell viability
[2]
  migration: inhibited cell viability in spheroids, colony formation, migration and invasion by CSCs in a dose-dependent manner
[2]; EGCG 0-60 μM, 24 h
  cell migration: inhibited
[3]; EGCG 0-60 μM, 24 h
  caspase-3/7 activity: induced caspase-3/7 activity and apoptosis in pancreatic CSCs in a dose-dependent manner

## CC(=O)c1c(O)c(C)c(O)c(Cc2c(O)c3c(c(C(=O)/C=C/c4ccccc4)c2O)OC(C)(C)C=C3)c1O [rottlerin]
[1]
  cell viability: inhibit cell viability
[3]; rottlerin 0-2 μM, 48 h, colorometric assay
  caspase-3/-7 activity: induced
